Test results from PubChem BioAssay (NCI).
Several values for one entry are separate records, joined by “and”; a condition that tells them apart may be missing. Equal entries are not always repeated.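 Compound exposure: 48 hours, 5 concentrations, 96-well plates. At the GI50, growth is halved. TGI: concentration producing complete growth inhibition.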

Key:
Assay in all cases: NCI-60 cell line screen, 48 h
ACHN renal = tested on: ACHN renal
CCRF-CEM leukemia = tested on: CCRF-CEM leukemia
HT29 colon = tested on: HT29 colon
SK-OV-3 ovarian = tested on: SK-OV-3 ovarian
SNB-19 CNS = tested on: SNB-19 CNS
SR leukemia = tested on: SR leukemia
UACC-257 melanoma = tested on: UACC-257 melanoma
UACC-62 melanoma = tested on: UACC-62 melanoma
CAKI-1 renal = tested on: CAKI-1 renal
T-47D breast = tested on: T-47D breast

SMILES | TGI (ACHN renal) [µM] | TGI (CCRF-CEM leukemia) [µM] | TGI (HT29 colon) [µM] | TGI (SK-OV-3 ovarian) | TGI (SNB-19 CNS) [µM] | TGI (SR leukemia) [µM] | TGI (UACC-257 melanoma) [µM] | TGI (UACC-62 melanoma) | TGI (CAKI-1 renal) [µM] | GI50 (ACHN renal) [µM] | GI50 (CAKI-1 renal) [µM] | GI50 (CCRF-CEM leukemia) [µM] | GI50 (HT29 colon) [µM] | GI50 (SNB-19 CNS) [µM] | GI50 (SR leukemia) [µM] | GI50 (UACC-257 melanoma) [µM] | GI50 (UACC-62 melanoma) [µM] | GI50 (SK-OV-3 ovarian) [µM] | TGI (T-47D breast) [µM]
O=S1OC(c2ccccc2)(c2ccccc2)C(c2ccccc2)(c2ccccc2)O1 | > 100 | > 100 | > 100 | > 100 µM | > 100 | > 100 | > 100 | > 100 µM | – | – | – | – | – | – | – | – | – | – | –
C/C(CN1C(=O)c2ccccc2C1=O)=N\NS(=O)(=O)c1ccc2ccccc2c1 | > 100 | > 100 | > 100 | > 100 µM | > 100 | > 100 | > 100 | > 100 µM | > 100 | – | – | – | – | – | – | – | – | – | –
O=C(CCc1n[nH]c(=S)o1)Nc1cc(Cl)ccc1Cl | > 100 | > 100 | > 100 | > 100 µM | > 100 | – | > 100 | > 100 µM | > 100 | – | – | – | – | – | – | – | – | – | –
Cc1ccc(S(=O)c2ccccc2[N+](=O)[O-])cc1 (configuration not stated) | > 100 | > 100 | > 100 | > 100 µM | > 100 | > 100 | > 100 | > 100 µM | > 100 | – | – | – | – | – | – | – | – | – | –
N#CC(C(=O)CCCC(=O)Nc1ccccc1[N+](=O)[O-])c1c(Cl)cccc1Cl (configuration not stated) | > 100 | > 100 | > 100 | > 100 µM | > 100 | > 100 | > 100 | > 100 µM | > 100 | – | – | – | – | – | – | – | – | – | –
CN(C)CCC(N)(P(=O)([O-])[O-])P(=O)([O-])[O-].N.N.[Pt+2] | > 100 | > 100 | > 100 | – | > 100 | > 100 | > 100 | > 100 µM | > 100 | > 100 | > 100 | > 100 | > 100 | > 100 | > 100 | > 100 | > 100 | – | –
COc1ccc(C2COc3c(ccc(OC)c3OC)C2=O)cc1OC (configuration not stated) | > 100 | > 100 | > 100 | > 100 µM | > 100 | > 100 | > 100 | > 100 µM | > 100 | – | – | – | – | – | – | – | – | – | –
O=C1C2C3CC4C5C3C1C5C1(SCCS1)C42 (configuration not stated) | > 100 | > 100 | – | > 100 µM | > 100 | > 100 | > 100 | > 100 µM | > 100 | – | – | – | – | – | – | – | – | – | –
NC(N)NCCCc1cn2c(n1)C1CCCN1C(=O)C2Cc1ccccc1 (configuration not stated) | > 100 | > 100 | > 100 | > 100 µM | > 100 | – | > 100 | > 100 µM | > 100 | – | – | – | – | – | – | – | – | – | –
CC1(OCc2ccccc2)C(=O)N2C1NCC2(C)C (configuration not stated) | > 100 | > 100 | > 100 | – | > 100 | > 100 | > 100 | > 100 µM | – | – | – | – | – | – | – | – | – | – | –
COC(=O)[C@@H](C)C[C@H](Cc1ccccc1)NC(=O)c1nc([C@@H](C[C@H](C(C)C)N(C)C(=O)[C@@H](NC(=O)[C@H]2C[C@H](O)CCN2C)C(C)C)OC(C)=O)sc1C(C)C | > 11.1 | > 11.1 | > 3.99 | > 11.1 µM | > 11.1 | > 11.1 | > 11.1 | > 11.1 µM | > 9.69 | 0.101 | 0.115 | 0.00525 | 0.00377 | 0.00424 | 0.00126 | 5.89 | 0.00243 | 0.00646 | –
CCN(CC)C(=O)CCn1ccc(=O)[nH]c1=O | > 100 | > 100 | > 100 | – | > 100 | > 100 | – | > 100 µM | – | – | – | – | – | – | – | – | – | – | –
CC(=O)OC(C)(C)C1CC[C@]2(C)/C=C/C(C)C[C@@H](O)/C=C(\C)CC(O)C12 (some centres not stated) | > 100 | > 100 | > 100 | > 100 µM | > 100 | > 100 | > 100 | > 100 µM | > 100 | – | – | – | – | – | – | – | – | – | –
O=C(O)CN1CCSc2ccccc2CN(CC(=O)O)CCSc2ccccc2C1 | > 100 | > 100 | > 100 | > 100 µM | > 100 | 84.5 | > 100 | > 100 µM | > 100 | – | – | – | – | – | – | – | – | – | –
C=C(Br)C(C)(Cl)CCC(Br)C(C)(C)Br (configuration not stated) | > 100 | 59.6 | > 100 | > 100 µM | – | 51.9 | > 100 | > 100 µM | > 100 | – | – | – | – | – | – | – | – | – | –
O=C([CH-]C(=O)c1ccccc1)c1ccccc1.O=C([CH-]C(=O)c1ccccc1)c1ccccc1.O=C([CH-]C(=O)c1ccccc1)c1ccccc1.[Ga+3] | > 100 | – | > 100 | > 100 µM | > 100 | > 100 | > 100 | > 100 µM | > 100 | 59 | 67 | – | 88.8 | > 100 | 9.53 | 93.3 | 32.7 | 63.5 | –

SMILES | TGI (ACHN renal) [µM] | TGI (CCRF-CEM leukemia) [µM] | TGI (HT29 colon) [µM] | TGI (SK-OV-3 ovarian) | TGI (SNB-19 CNS) [µM] | TGI (SR leukemia) [µM] | TGI (UACC-257 melanoma) [µM] | TGI (UACC-62 melanoma) | TGI (CAKI-1 renal) [µM] | GI50 (ACHN renal) [µM] | GI50 (CAKI-1 renal) [µM] | GI50 (CCRF-CEM leukemia) [µM] | GI50 (HT29 colon) [µM] | GI50 (SNB-19 CNS) [µM] | GI50 (SR leukemia) [µM] | GI50 (UACC-257 melanoma) [µM] | GI50 (UACC-62 melanoma) [µM] | GI50 (SK-OV-3 ovarian) [µM] | TGI (T-47D breast) [µM]
O=C(O)/C=C/c1ccc(O)c(O)c1 | > 100 | > 100 | > 100 | > 100 µM | > 100 | – | > 100 | > 100 µM | > 100 | – | – | – | – | – | – | – | – | – | –
COc1ccc(-c2csc3c2-n2cccc2C3=O)cc1 | > 90.9 | > 100 | – | 5.98 µM and 25.3 µM | > 100 | – | – | > 100 µM | > 100 | – | 0.0528 | 0.0299 | 0.00571 | 0.0394 | 0.00314 | – | 0.232 | – | –
CC(=O)C1(O)CC2(c3ccccc3)C(=O)C1(c1ccccc1)C(c1ccccc1)=C2c1ccccc1 (configuration not stated) | – | > 100 | > 100 | > 100 µM | > 100 | > 100 | > 100 | > 100 µM | > 100 | – | – | – | – | – | – | – | – | – | –
O=C1CSC(c2c[nH]c3ccccc23)N1c1cccc(Cl)c1 (configuration not stated) | > 100 | > 100 | > 100 | > 100 µM | > 100 | – | > 100 | > 100 µM | – | – | – | – | – | – | – | – | – | – | > 100
COC(=O)c1cc2ccc(O)c(O)c2cn1 | 43.6 | > 100 | – | 92.3 µM | – | – | 29.6 | 6.16 µM and 30.9 µM | 25.7 | – | – | 4.62 | – | – | – | – | 14.2 | – | –
O=C(CCc1nnc2s/c(=C\c3ccc([N+](=O)[O-])cc3)c(=O)n12)Nc1ccc(Cl)c(Cl)c1 | > 100 | 51 | 71.7 | > 100 µM | > 100 | – | > 100 | 78.8 µM | > 100 | – | – | – | – | – | – | – | – | – | –
CC(=O)N1C/C(=C\c2ccccc2)C(=O)/C(=C/c2ccccc2)C1 | 32.4 | 11.3 | 13.8 | > 54 µM | 31.5 | 17.5 | 18.6 | 34.2 µM | 35.5 | – | – | – | – | – | – | – | – | – | –
CC(C)(CN1CCCCC1)C(=O)/C=C/c1ccccc1 | 96.6 | 35.4 | 36.4 | 57.3 µM | 34.6 | – | 46.8 | 53.2 µM | 48 | – | – | – | – | – | – | – | – | – | –
C/C(=N/NC(=O)c1ccccc1S(N)(=O)=O)C(CN1CCCCC1)C(C1=C(O)C2C=CC=CC2OC1=O)c1ccccc1 (configuration not stated) | > 100 | 67.7 | > 100 | > 100 µM | > 100 | 61.8 | > 100 | > 100 µM | > 100 | – | – | – | – | – | – | – | – | – | –
Cn1cc(C2NC(=O)c3ccccc3N2)c2ccccc21 (configuration not stated) | > 92.8 | 0.877 | 0.86 | 40.3 µM | > 91 | – | > 100 | – | > 100 | – | – | – | – | – | – | – | – | – | –
O=C(/C=C/c1ccccc1)NC1C=Nc2ccc([N+](=O)[O-])cc2NC1=O (configuration not stated) | > 100 | > 100 | > 100 | > 100 µM | > 100 | > 100 | > 100 | > 100 µM | > 100 | – | – | – | – | – | – | – | – | – | –
C[C@@H]1C(=O)CC2C(C)(C)CCC[C@]2(C)[C@@]12CC[C@]1(C=COC1)O2 (some centres not stated) | > 100 | 70.8 | > 100 | 91.7 µM | > 100 | 59 | – | > 100 µM | > 100 | – | – | – | – | – | – | – | – | – | –
Cc1c(C(Cc2ccccc2N(C)C(=O)/C=C\C(=O)O)c2c[nH]c3ccccc23)c2ccccc2n1C (configuration not stated) | 34.3 | 37.1 | 30.8 | 40.2 µM | 39.4 | 46.7 | 31.5 | 34.1 µM | 36 | – | – | – | – | – | – | – | – | – | –
NC1=C(O)c2cccc3cccc(c23)C1=O | > 100 | > 100 | > 100 | > 100 µM | > 100 | – | > 100 | > 100 µM | > 100 | – | – | – | – | – | – | – | – | – | –
Cc1cc(N(CCC#N)CCC#N)ccc1/C=C(\NC(=O)/C=C/c1ccccc1)C(=O)N=[N+]=[N-] | > 100 | > 100 | > 100 | > 100 µM | > 100 | – | > 100 | > 100 µM | > 100 | – | – | – | – | – | – | – | – | – | –
O=C1NN2CC(c3ccccc3)=NN=C2c2ccccc21 | > 100 | 55.7 | 49 | 51 µM | 44.7 | 42 | > 100 | 49.5 µM | > 100 | 36.9 | 33.5 | 22.9 | 24.7 | 20.5 | 0.507 | 59.1 | 22.6 | 24.2 | –
